The subject of the experiment is BDF1 mice, intracerebral B16 melanoma, median survival T/C. As to the kind of experiment: NCI In Vivo Anticancer Drug Screen. Data for tumor model B16 Melanoma (intracerebral) in B6D2F1 (BDF1) mice. Conditions: endpoint: median survival time, higher = longer survival. On the procedure:
The antitumor activity of compounds was measured in mice bearing transplantable tumors. Survival or tumor size were measured and the results are expressed as the measurement made in the treated group (T) divided by the measurement made in the vehicle treated control group (C). The tumor model used in this assay is B16 Melanoma (intracerebral) in B6D2F1 (BDF1) mice

The mark [1] stands for this setting: dose: 17.8 mg/kg/injection, schedule: Q01DX001 (ip), vehicle: Klucel (hydroxypropylcellulose) (HPC).
Setting [2] is: dose: 26.7 mg/kg/injection, schedule: Q01DX001 (ip), vehicle: Klucel (hydroxypropylcellulose) (HPC).
[3] abbreviates: dose: 40.0 mg/kg/injection, schedule: Q01DX001 (ip), vehicle: Klucel (hydroxypropylcellulose) (HPC).
Where [4] appears, read: dose: 60.0 mg/kg/injection, schedule: Q01DX001 (ip), vehicle: Klucel (hydroxypropylcellulose) (HPC).
Setting [5] is: dose: 13.0 mg/kg/injection, schedule: Q01DX001 (ip), vehicle: saline.
[6] abbreviates: dose: 21.6 mg/kg/injection, schedule: Q01DX001 (ip), vehicle: saline.
[7] abbreviates: dose: 16.0 mg/kg/injection, schedule: Q01DX005 (ip), vehicle: saline.
[8] abbreviates: dose: 4.0 mg/kg/injection, schedule: Q01DX009 (ip), vehicle: saline.
The mark [9] stands for this setting: dose: 32.0 mg/kg/injection, schedule: Q01DX005 (ip), vehicle: Klucel (hydroxypropylcellulose) (HPC).

Values joined by “and” are separate entries in the source; they are usually repeats but may differ in a detail not shown here. Equal entries are not always repeated. Inconclusive results and toxic doses are left out.

With `O=NN(CCF)C(=O)NC1CCCCC1`, the T/C is, setting by setting: (dose: 5.1 mg/kg/injection, schedule: Q01DX001 (ip), vehicle: other) 107 % of control; (dose: 10.2 mg/kg/injection, schedule: Q01DX001 (ip), vehicle: other) 112 % of control; (dose: 13.0 mg/kg/injection, schedule: Q01DX001 (ip), vehicle: Klucel (hydroxypropylcellulose) (HPC)) 104 % of control; under setting [1], 111 % of control; (dose: 21.6 mg/kg/injection, schedule: Q01DX001 (ip), vehicle: Klucel (hydroxypropylcellulose) (HPC)) 174 % of control; under setting [2], 115 % of control. Further, the T/C under setting [3] is 180 % of control; the T/C (dose: 43.2 mg/kg/injection, schedule: Q01DX001 (ip), vehicle: other) is 180 % of control; the T/C under setting [4] was 168 % of control and 269 % of control; the T/C (dose: 90.0 mg/kg/injection, schedule: Q01DX001 (ip), vehicle: Klucel (hydroxypropylcellulose) (HPC)) was 263 % of control; the T/C (dose: 162.8 mg/kg/injection, schedule: Q01DX001 (ip), vehicle: other) was 235 % of control.
For the molecule `N=C(N)SCc1c2ccccc2c(CSC(=N)N)c2ccccc12`, the T/C (dose: 2.5 mg/kg/injection, schedule: Q01DX005 (ip), vehicle: Klucel (hydroxypropylcellulose) (HPC)) was 107 % of control and 111 % of control; the T/C (dose: 5.0 mg/kg/injection, schedule: Q01DX005 (ip), vehicle: Klucel (hydroxypropylcellulose) (HPC)) was 90 % of control and 92 % of control; the T/C (dose: 10.0 mg/kg/injection, schedule: Q01DX005 (ip), vehicle: Klucel (hydroxypropylcellulose) (HPC)) is 97 % of control and 103 % of control; the T/C (dose: 20.0 mg/kg/injection, schedule: Q01DX005 (ip), vehicle: Klucel (hydroxypropylcellulose) (HPC)) is 93 % of control and 96 % of control.
In the case of `O=NN(CCF)C(=O)NCCO`, the T/C by setting is: under setting [5], 169 % of control; under setting [6], 209 % of control; under setting [2], 90 % of control; (dose: 36.0 mg/kg/injection, schedule: Q01DX001 (ip), vehicle: saline) 392 % of control; under setting [3], 338 % of control; under setting [4], 220 % of control.
Consider `CN=NNc1nc[nH]c1C(N)=O`, for which the T/C under setting [7] is 106 % of control; the T/C (dose: 32.0 mg/kg/injection, schedule: Q01DX005 (ip), vehicle: saline) was 95 % of control; the T/C (dose: 64.0 mg/kg/injection, schedule: Q01DX005 (ip), vehicle: saline) is 102 % of control; the T/C (dose: 128.0 mg/kg/injection, schedule: Q01DX005 (ip), vehicle: saline) is 107 % of control.
Turning to `COc1ccc2c(c1O)-c1cccc3c1[C@@H](C2)N(CCCl)CC3`, the T/C is, setting by setting: (dose: 8.0 mg/kg/injection, schedule: Q01DX005 (ip), vehicle: saline) 94 % of control; under setting [7], 88 % of control.
As to `NC(C/[N+]([O-])=N/O)C(=O)O` (centres undefined), the T/C reads like this: (dose: 3.5 mg/kg/injection, schedule: Q01DX009 (ip), vehicle: saline) 97 % of control; (dose: 7.0 mg/kg/injection, schedule: Q01DX009 (ip), vehicle: saline) 87 % of control; (dose: 12.5 mg/kg/injection, schedule: Q01DX009 (ip), vehicle: Klucel (hydroxypropylcellulose) (HPC)) 107 % of control; (dose: 14.0 mg/kg/injection, schedule: Q01DX009 (ip), vehicle: saline) 89 % of control; (dose: 25.0 mg/kg/injection, schedule: Q01DX009 (ip), vehicle: Klucel (hydroxypropylcellulose) (HPC)) 100 % of control; (dose: 56.25 mg/kg/injection, schedule: Q01DX009 (ip), vehicle: saline) 101 % of control.
As for `CCCCCCC(=O)O[C@H]1CC[C@H]2[C@@H]3CCC4=CC(=O)CC[C@]4(C)[C@H]3CC[C@]12C`, the T/C by setting is: (dose: 8.0 mg/kg/injection, schedule: Q01DX009 (ip), vehicle: Klucel (hydroxypropylcellulose) (HPC)) 107 % of control; (dose: 16.0 mg/kg/injection, schedule: Q01DX009 (ip), vehicle: Klucel (hydroxypropylcellulose) (HPC)) 98 % of control; (dose: 32.0 mg/kg/injection, schedule: Q01DX009 (ip), vehicle: Klucel (hydroxypropylcellulose) (HPC)) 100 % of control; (dose: 64.0 mg/kg/injection, schedule: Q01DX009 (ip), vehicle: Klucel (hydroxypropylcellulose) (HPC)) 96 % of control; (dose: 128.0 mg/kg/injection, schedule: Q01DX009 (ip), vehicle: Klucel (hydroxypropylcellulose) (HPC)) 103 % of control.
For `O=NN(CCF)C(=O)NC1C(O)CCCC1O` (centres undefined), the T/C was 115 % of control under setting [5]; 120 % of control under setting [1]; 111 % of control under setting [6]; 160 % of control under setting [3]; 171 % of control under setting [4]; 189 % of control (dose: 60.0 mg/kg/injection, schedule: Q01DX001 (ip), vehicle: saline).
Consider `O=C1c2ccccc2C(=O)c2c(NCCNCCO)ccc(NCCNCCO)c21`, for which the T/C runs as follows: (dose: 1.0 mg/kg/injection, schedule: Q01DX005 (ip), vehicle: saline with Tween-80) 120 % of control and 111 % of control; (dose: 1.0 mg/kg/injection, schedule: Q01DX005 (ip), vehicle: saline) 99 % of control and 107 % of control; (dose: 2.0 mg/kg/injection, schedule: Q01DX005 (ip), vehicle: saline with Tween-80) 118 % of control and 109 % of control; (dose: 2.0 mg/kg/injection, schedule: Q01DX005 (ip), vehicle: saline) 120 % of control and 99 % of control; (dose: 4.0 mg/kg/injection, schedule: Q01DX005 (ip), vehicle: saline with Tween-80) 109 % of control; (dose: 4.0 mg/kg/injection, schedule: Q01DX005 (ip), vehicle: saline) 104 % of control and 112 % of control. Also, the T/C (dose: 4.0 mg/kg/injection, schedule: Q01DX009 (ip), vehicle: saline with Tween-80) was 99 % of control and 102 % of control; the T/C under setting [8] is 95 % of control and 103 % of control; the T/C (dose: 8.0 mg/kg/injection, schedule: Q01DX009 (ip), vehicle: saline with Tween-80) was 93 % of control and 102 % of control; the T/C (dose: 8.0 mg/kg/injection, schedule: Q01DX009 (ip), vehicle: saline) is 98 % of control and 102 % of control; the T/C (dose: 16.0 mg/kg/injection, schedule: Q01DX005 (ip), vehicle: Klucel (hydroxypropylcellulose) (HPC)) is 116 % of control; the T/C (dose: 16.0 mg/kg/injection, schedule: Q01DX009 (ip), vehicle: saline with Tween-80) is 100 % of control. For the same molecule, the T/C was 102 % of control and 103 % of control (dose: 16.0 mg/kg/injection, schedule: Q01DX009 (ip), vehicle: saline); 107 % of control under setting [9]; 86 % of control (dose: 32.0 mg/kg/injection, schedule: Q01DX009 (ip), vehicle: saline).
Turning to `NC(CSC(c1ccccc1)(c1ccccc1)c1ccccc1)C(=O)O` (centres undefined), the T/C under setting [9] was 105 % of control and 115 % of control; the T/C (dose: 64.0 mg/kg/injection, schedule: Q01DX005 (ip), vehicle: Klucel (hydroxypropylcellulose) (HPC)) was 105 % of control and 112 % of control; the T/C (dose: 128.0 mg/kg/injection, schedule: Q01DX005 (ip), vehicle: Klucel (hydroxypropylcellulose) (HPC)) was 117 % of control and 119 % of control; the T/C (dose: 256.0 mg/kg/injection, schedule: Q01DX005 (ip), vehicle: Klucel (hydroxypropylcellulose) (HPC)) is 124 % of control and 107 % of control.
Regarding `O=C1C(N2CC2)=C(N2CC2)C(=O)C(N2CC2)=C1N1CC1`, the T/C is, setting by setting: (dose: 10.0 micrograms/kg/injection, schedule: Q01DX009 (ip), vehicle: saline) 120 % of control; (dose: 20.0 micrograms/kg/injection, schedule: Q01DX009 (ip), vehicle: saline) 107 % of control; (dose: 80.0 micrograms/kg/injection, schedule: Q01DX009 (ip), vehicle: saline) 95 % of control.
For the molecule `COc1cc([C@@H]2c3cc4c(cc3[C@@H](OC3OC5CO[C@@H](c6cccs6)OC5C(O)C3O)[C@H]3COC(=O)[C@H]23)OCO4)cc(OC)c1O` (some centres undefined), the T/C (dose: 0.25 mg/kg/injection, schedule: Q01DX009 (ip), vehicle: saline) was 96 % of control; the T/C (dose: 0.5 mg/kg/injection, schedule: Q01DX009 (ip), vehicle: saline) was 107 % of control; the T/C (dose: 0.5 mg/kg/injection, schedule: Q01DX009 (ip), vehicle: water) is 91 % of control; the T/C (dose: 1.0 mg/kg/injection, schedule: Q01DX009 (ip), vehicle: saline) was 95 % of control and 100 % of control; the T/C (dose: 1.0 mg/kg/injection, schedule: Q01DX009 (ip), vehicle: water) is 104 % of control; the T/C (dose: 2.0 mg/kg/injection, schedule: Q01DX009 (ip), vehicle: saline) is 100 % of control and 108 % of control. For the same molecule, the T/C is 95 % of control (dose: 2.0 mg/kg/injection, schedule: Q01DX009 (ip), vehicle: water) and 104 % of control under setting [8].

The values are drawn from PubChem BioAssay AID196 (DTP/NCI, 2004).
